Laboratory results taken from patent US9890185B2, “Urea derivatives useful as kinase inhibitors” (Respivert Limited, priority 2013, dated 2018).

Legend:
c-Src = c-Src (Homo sapiens (Human), UniProt P12931); assay: c-Src enzyme inhibition (FRET, Z-LYTE); type: biochemical
Description: (§1) The enzyme inhibitory activities of compounds disclosed herein are determined by FRET using synthetic peptides labelled with both donor and acceptor fluorophores (Z-LYTE, Invitrogen Ltd., Paisley, UK).
(§2) The inhibitory activities of compounds of the invention against c-Src and Syk enzymes (Invitrogen), are evaluated in a similar fashion to that described hereinabove. The relevant enzyme (3000 ng/mL or 2000 ng/mL respectively, 2.5 μL) is incubated with the test compound (either 4 μg/mL, 0.4 μg/mL, 0.04 μg/mL, or 0.004 μg/mL, 2.5 μL each) for 2 hr at RT. The FRET peptides (8 μM, 2.5 μL), and appropriate ATP solutions (2.5 μL, 800 μM for c-Src, and 60 μM ATP for Syk) are then added to the enzymes/compound mixtures and incubated for 1 hr. Development reagent (protease, 5 μL) is added for 1 hr prior to detection in a fluorescence microplate reader (Varioskan® Flash, ThermoFisher Scientific).
(§3) In all cases, the site-specific protease cleaves non-phosphorylated peptide only and eliminates the FRET signal. Phosphorylation levels of each reaction are calculated using the ratio of coumarin emission (donor) over fluorescein emission (acceptor), for which high ratios indicate high phosphorylation and low ratios indicate low phosphorylation levels. The percentage inhibition of each reaction is calculated relative to non-inhibited control and the 50% inhibitory concentration (IC50 value) is then calculated from the concentration-response curve.

GSK 3α = GSK 3α (Homo sapiens (Human), UniProt P49840); assay: GSK 3α enzyme inhibition (FRET, Z-LYTE, Method 2); type: biochemical; details: read-out: IC50 Values for Enzyme Inhibition, GSK3α
GSK 3α, sequence (P49840 whole entry): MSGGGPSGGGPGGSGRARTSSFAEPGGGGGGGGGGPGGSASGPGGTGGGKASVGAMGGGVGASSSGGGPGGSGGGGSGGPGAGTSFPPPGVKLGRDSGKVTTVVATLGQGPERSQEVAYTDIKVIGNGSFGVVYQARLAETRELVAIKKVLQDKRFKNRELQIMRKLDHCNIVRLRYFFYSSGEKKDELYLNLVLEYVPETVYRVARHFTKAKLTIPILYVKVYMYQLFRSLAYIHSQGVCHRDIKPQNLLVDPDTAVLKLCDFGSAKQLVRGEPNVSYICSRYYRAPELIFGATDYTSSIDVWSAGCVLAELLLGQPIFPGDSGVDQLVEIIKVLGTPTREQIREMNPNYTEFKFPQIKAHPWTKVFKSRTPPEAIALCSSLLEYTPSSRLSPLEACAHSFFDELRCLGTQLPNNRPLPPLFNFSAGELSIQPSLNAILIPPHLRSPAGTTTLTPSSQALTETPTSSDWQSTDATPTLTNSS
In short: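 Human GSK3α (500 ng/mL) preincubated with compound (4, 0.4, 0.04 or 0.004 μg/mL) at RT for 2 h (Method 1) or 105 min (Method 2). Then FRET peptide (8 μM) and ATP (40 μM) added for 1 h, followed by protease development for 1 h. IC50 from the coumarin/fluorescein emission ratio relative to uninhibited control.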

PBMCs [1] = assay: LPS-induced IL-8 release in PBMC cells (assay b); type: cell-based, human; details: Homo sapiens, PBMC; LPS-stimulated PBMCs; read-out: IC50 Values for Inhibition of Cytokine Release, PBMCs IL-8
In short: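 Cytokines (TNFα, IL-8) in supernatants were quantified by sandwich ELISA after a 24 h challenge with 1 ng/mL E. coli LPS at 37° C, 5% CO2. Healthy-donor PBMCs had been exposed to compound for 2 h beforehand. IC50 values were fitted from the concentration-response curves.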

[2] = target: p38 MAPKα isoform (MAPK14) (Homo sapiens (Human), UniProt Q16539); assay: p38 MAPKα enzyme inhibition (FRET, Z-LYTE, Method 2); type: biochemical
p38 MAPKα isoform (MAPK14), sequence (Q16539 whole entry, canonical isoform): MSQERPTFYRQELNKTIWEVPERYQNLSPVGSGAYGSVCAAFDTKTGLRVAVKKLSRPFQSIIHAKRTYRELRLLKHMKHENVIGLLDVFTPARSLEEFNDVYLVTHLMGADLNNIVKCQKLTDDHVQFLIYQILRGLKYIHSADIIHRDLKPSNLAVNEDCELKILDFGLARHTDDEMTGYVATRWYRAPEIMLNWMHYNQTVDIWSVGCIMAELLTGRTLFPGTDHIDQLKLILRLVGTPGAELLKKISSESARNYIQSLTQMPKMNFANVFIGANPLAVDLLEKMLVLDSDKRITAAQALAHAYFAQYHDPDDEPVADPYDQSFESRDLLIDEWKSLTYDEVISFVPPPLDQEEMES
Description: as §1
The following two assay variants can be used for determination of p38 MAPKα inhibition.
The inhibitory activities of test compounds against the p38 MAPKα isoform (MAPK14: Invitrogen), are evaluated indirectly by determining the level of activation/phosphorylation of the down-stream molecule, MAPKAP-K2. The p38 MAPKα protein (80 ng/mL, 2.5 μL) is mixed with the test compound (2.5 μL of either 4 μg/mL, 0.4 μg/mL, 0.04 μg/mL or 0.004 μg/mL) for 2 hr at RT. […] The mixture is incubated for 1 hr at RT. Development reagent (protease, 5 μL) is added for 1 hr prior to detection in a fluorescence microplate reader (Varioskan® Flash, ThermoFisher Scientific).
This method follows the same steps as Method 1 above, but utilises a higher concentration of the p38 MAPKα protein (2.5 μL of 200 ng/mL protein instead of 2.5 μL of 80 ng/mL protein) for mixing with the test compound.
as §3

Syk = Syk (Homo sapiens (Human), UniProt P43405); assay: Syk enzyme inhibition (FRET, Z-LYTE); type: biochemical
Description: as §1, §2, §3

d-U937 cells = assay: Accumulation of β catenin in d-U937 cells (assay m); type: cell-based, human; details: percentage relative to Reference Compound at 1 μg/mL
Description: U937 cells, a human monocytic cell line, are differentiated into macrophage-type cells by incubation with PMA; (100 ng/mL) for between 48 to 72 hr. The cells are then incubated with either final concentrations of test compound or vehicle for 18 hr. The induction of β-catenin by the test compounds is stopped by replacing the media with 4% formaldehyde solution. Endogenous peroxide activity is neutralised by incubating with quenching buffer (100 μL, 0.1% sodium azide, 1% H2O2 in PBS with 0.05% Tween-20) for 20 min. The cells are washed with washing buffer (200 μL; PBS containing 0.05% Tween-20) and incubated with blocking solution (200 μL; 5% milk in PBS) for 1 hr, re-washed with washing buffer (200 μL) and then incubated overnight with anti-β-catenin antibody solution (50 μL) in 1% BSA/PBS (BD, Oxford, UK).
After washing with washing buffer (3×200 μL; PBS containing 0.05% Tween-20), cells are incubated with an HRP-conjugated secondary antibody solution (100 μL) in 1% BSA/PBS (Dako, Cambridge, UK) and the resultant signal is determined colourimetrically (OD: 450 nm with a reference wavelength of 655 nm) using TMB substrate (50 μL; R&D Systems, Abingdon, UK). This reaction is stopped by addition of 1N H2SO4 solution (50 μL). Cells are then washed with washing buffer and 2% crystal violet solution (50 μL) is applied for 30 min. After washing with washing buffer (3×200 μL), 1% SDS (100 μL) is added to each well and the plates are shaken lightly for 1 hr prior to measuring the absorbance at 595 nm (Varioskan® Flash, Thermo-Fisher Scientific).
The measured OD450-655 readings are corrected for cell number by dividing the OD450-655 by the OD595 readings.

PBMCs [3] = assay: Cell mitosis assay in PBMCs (assay g); type: cell-based; details: Homo sapiens, PBMC, test compound 5 μg/mL
Description: Peripheral blood mononucleocytes (PBMCs) from healthy subjects are separated from whole blood (Quintiles, London, UK) using a density gradient (Histopaque®-1077, Sigma-Aldrich, Poole, UK). The PBMCs (3 million cells per sample) are subsequently treated with 2% PHA (phytohaemagglutinin, Sigma-Aldrich, Poole, UK) for 48 hr, followed by a 20 hr exposure to varying concentrations of test compounds. At 2 hr before collection, PBMCs are treated with demecolcine (0.1 μg/mL; Invitrogen, Paisley, UK) to arrest cells in metaphase. To observe mitotic cells, PBMCs are permeabilised and fixed by adding Intraprep (50 μL; Beckman Coulter, France), and stained with anti-phospho-histone 3 (0.26 ng/L; #9701; Cell Signalling, Danvers, Mass.) and propidium iodide (1 mg/mL; Sigma-Aldrich, Poole, UK) as previously described (Muehlbauer P. A. and Schuler M. J., Mutation Research, 2003, 537:117-130). Fluorescence is observed using an ATTUNE flow cytometer (Invitrogen, Paisley, UK), gating for lymphocytes. The percentage inhibition of mitosis is calculated for each treatment relative to vehicle (0.5% DMSO) treatment.

c-Src, sequence (P12931 whole entry, looked up): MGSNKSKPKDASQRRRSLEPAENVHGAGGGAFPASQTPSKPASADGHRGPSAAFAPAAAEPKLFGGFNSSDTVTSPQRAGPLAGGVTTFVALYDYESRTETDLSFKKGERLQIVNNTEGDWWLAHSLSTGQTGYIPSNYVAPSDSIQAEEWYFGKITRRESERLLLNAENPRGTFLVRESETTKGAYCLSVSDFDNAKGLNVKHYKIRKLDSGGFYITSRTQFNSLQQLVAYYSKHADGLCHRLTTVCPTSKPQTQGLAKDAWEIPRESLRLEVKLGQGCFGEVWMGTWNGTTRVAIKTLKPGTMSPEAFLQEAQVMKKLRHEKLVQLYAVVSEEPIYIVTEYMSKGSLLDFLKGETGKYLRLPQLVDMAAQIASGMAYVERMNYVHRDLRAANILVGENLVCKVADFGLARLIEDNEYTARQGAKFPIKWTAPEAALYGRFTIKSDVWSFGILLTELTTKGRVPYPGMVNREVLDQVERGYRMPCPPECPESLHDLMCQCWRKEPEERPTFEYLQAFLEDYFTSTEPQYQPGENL

IC50 (c-Src)	IC50 (GSK 3α)	IC50 [2]	IC50 (Syk)	SMILES	IC50 (PBMCs [1])	% β-catenin induction (d-U937 cells; test compound 1 μg/mL)	% β-catenin induction (d-U937 cells; test compound 5 μg/mL)	% β-catenin induction (d-U937 cells; test compound 10 μg/mL)	inhibition at 5 µg/mL (PBMCs [3])
> 1780 nM	> 17800 nM	38 nM	> 1780 nM	COc1c(NC(=O)Nc2ccc(Oc3ccnc(N(C)C)n3)c3ccccc23)cc(C(C)(C)C)cc1P(C)(C)=O [15(ak), 1-(5-(tert-butyl)-3-(dimethylphosphoryl)-2-methoxyphenyl)-3-(4-((2-(dimethylamino)-pyrimidin-4-yl)oxy)naphthalen-1-yl)urea]	26 nM				
14 nM	785 nM	59 nM	273 nM	COc1c(NC(=O)Nc2ccc(Oc3ccnc(Nc4ccccc4)n3)c3ccccc23)cc(C(C)(C)C)cc1P(C)(C)=O [15(b), 1-(5-(tert-butyl)-3-(dimethylphosphoryl)-2-methoxyphenyl)-3-(4-((2-(phenylamino)-pyrimidin-4-yl)oxy)naphthalen-1-yl)urea]	4.5 nM				
19 nM	855 nM	173 nM	16 nM	COc1c(NC(=O)Nc2ccc(Oc3ccnc(Nc4cc(C)c5[nH]ncc5c4)n3)c3ccccc23)cc(C(C)(C)C)cc1P(C)(C)=O [15(j), 1-(5-(tert-butyl)-3-(dimethylphosphoryl)-2-methoxyphenyl)-3-(4-((2-((7-methyl-1H-indazol-5-yl)amino)pyrimidin-4-yl)oxy)naphthalen-1-yl)urea]	3.2 nM				
25 nM		6 nM	7 nM	COc1cc(Nc2cc(Oc3ccc(NC(=O)Nc4cc(C(C)(C)C)cc(P(C)(C)=O)c4OC)c4ccccc34)ccn2)cc(S(=O)(=O)N(C)CCN2CCN(C)CC2)c1 [79(m), 3-((4-((4-(3-(5-(tert-Butyl)-3-(dimethylphosphoryl)-2-methoxyphenyl)ureido)naphthalen-1-yl)oxy)pyridin-2-yl)amino)-5-methoxy-N-methyl-N-(2-(4-methylpiperazin-1-yl)ethyl)benzene sulfonamide]	1.8 nM				
44 nM	11300 nM	230 nM	137 nM	COc1cc(Nc2cc(Oc3ccc(NC(=O)Nc4cc(C(C)(C)C)cc(P(C)(C)=O)c4OC)c4ccccc34)ccn2)cc(OC)c1 [Example 27, 1-(5-(tert-Butyl)-3-(dimethylphosphoryl)-2-methoxyphenyl)-3-(4-((2-((3,5-dimethoxyphenyl)-amino)pyridin-4-yl)oxy)naphthalen-1-yl)urea]	1 nM	5.7%	13.0%	13.3%	52%

Second part, the compound before the results:

SMILES	IC50 (c-Src)	IC50 (GSK 3α)	IC50 [2]	IC50 (Syk)	IC50 (PBMCs [1])	% β-catenin induction (d-U937 cells; test compound 1 μg/mL)	% β-catenin induction (d-U937 cells; test compound 5 μg/mL)	% β-catenin induction (d-U937 cells; test compound 10 μg/mL)	inhibition at 5 µg/mL (PBMCs [3])
COc1cccc(Nc2cc(Oc3ccc(NC(=O)Nc4cc(C(C)(C)C)cc(P(C)(C)=O)c4OC)c4ccccc34)ccn2)c1 [15(af), 1-(5-(tert-butyl)-3-(dimethylphosphoryl)-2-methoxyphenyl)-3-(4-((2-((3-methoxy-phenyl)amino)pyridin-4-yl)oxy)naphthalen-1-yl)urea]	77 nM	9400 nM	226 nM	278 nM	2.7 nM	−2.0%	13.0%	32.0%	
COc1c(CC(N)=O)cc(C(C)(C)C)cc1NC(=O)Nc1ccc(Oc2ccnc(Nc3cc(OCCN4CCOCC4)cc(C(F)(F)F)c3)c2)c2ccccc12 [38(w), 2-(5-(tert-Butyl)-2-methoxy-3-(3-(4-((2-((3-(2-morpholinoethoxy)-5-(trifluoromethyl)-phenyl)amino)pyridin-4-yl)oxy)naphthalen-1-yl)ureido)phenyl)acetamide]		> 12700 nM			4 nM				23.9%
COc1c(NC(=O)Nc2ccc(Oc3ccnc(Nc4cc(OCCN5CCOCC5)cc(C(F)(F)F)c4)c3)c3ccccc23)cc(C(C)(C)C)cc1[S+](C)[O-] (centres unmarked) [38(x), 1-(5-(tert-Butyl)-2-methoxy-3-(methylsulfinyl)phenyl)-3-(4-((2-((3-(2-morpholinoethoxy)-5-(trifluoromethyl)phenyl)amino)pyridin-4-yl)oxy)naphthalen-1-yl)urea]		> 12600 nM			4.1 nM				35%
COCCOCCOCCOc1cc(Nc2cc(Oc3ccc(NC(=O)Nc4cc(C(C)(C)C)cc(CP(C)(C)=O)c4OC)c4ccccc34)ccn2)cc(OC)c1 [Example 29, 1-(5-(tert-Butyl)-3-((dimethylphosphoryl)methyl)-2-methoxyphenyl)-3-(4-((2-((3-methoxy-5-(2-(2-(2-methoxyethoxy)ethoxy)ethoxy)phenyl)amino)pyridin-4-yl)oxy)naphthalen-1-yl)urea]	24 nM	5470 nM	31 nM	123 nM	0.8 nM	6.5%	9.0%	45.0%	49.4%
COc1c(NC(=O)Nc2ccc(Oc3ccnc(NCc4ccccn4)n3)c3ccccc23)cc(C(C)(C)C)cc1P(C)(C)=O [Example 32, 1-(5-(tert-Butyl)-3-(dimethylphosphoryl)-2-methoxyphenyl)-3-(4-((2-((pyridin-2-ylmethyl)-amino)pyrimidin-4-yl)oxy)naphthalen-1-yl)urea]	1110 nM	988 nM	6 nM	1600 nM	1.8 nM				
